Assay results from ChEMBL document CHEMBL5500332, “Structure-based approaches for the design of 6-aryl-1-(3,4,5-trimethoxyphenyl)-1H-benzo[d][1,2,3]triazoles as tubulin polymerization inhibitors” (Eur J Med Chem, 2024).
pIC50: −log10 of the molar value. The source made the active and inactive calls. The calls are words filed in the database; no cut-off is given here.

How the values were obtained:
MCF7 [1] = experiment: Induction of apoptosis in human MCF7 cells assessed as necrotic cells at 60 nM incubated for 48 hrs by annexin V-FITC and PI staining based flow cytometry analysis (reference value: 2.25%); assay type: functional
MCF7 [2] = experiment: Induction of apoptosis in human MCF7 cells assessed as necrotic cells at 20 nM incubated for 48 hrs by annexin V-FITC and PI staining based flow cytometry analysis (reference value: 2.25%); assay type: functional
MCF7 [3] = experiment: Induction of cell cycle arrest in human MCF7 cells assessed as accumulation of cells at G2/M phase at 60 nM incubated for 24 hrs by PI staining based flow cytometry analysis (reference value: 14.36%); assay type: functional
MCF7 [4] = experiment: Induction of apoptosis in human MCF7 cells assessed as viable cells at 20 nM incubated for 48 hrs by annexin V-FITC and PI staining based flow cytometry analysis (reference value: 92.4%); assay type: functional; conditions: read-out: Activity
MCF7 [5] = experiment: Induction of apoptosis in human MCF7 cells assessed as early apoptotic cells at 20 nM incubated for 48 hrs by annexin V-FITC and PI staining based flow cytometry analysis (reference value: 2.17%); assay type: functional
MCF7 [6] = experiment: Induction of cell cycle arrest in human MCF7 cells assessed as accumulation of cells at S phase at 60 nM incubated for 24 hrs by PI staining based flow cytometry analysis (reference value: 14.58%); assay type: functional
Tubulin (Homo sapiens) [7] = target: T1, Tubulin (Homo sapiens) (UniProt P68371+Q9H4B7+P0DPH7+P68366+Q13509+Q71U36+P04350+Q3ZCM7+P07437+P68363+Q9BQE3+Q6PEY2+Q13885+Q9BVA1+Q9BUF5); experiment: Disruption of microtubule network in human MCF7 cells incubated for 24 hrs by immunofluorescence staining based confocal microscopic analysis; assay type: cell-based
MCF7 [8] = experiment: Induction of apoptosis in human MCF7 cells assessed as early apoptotic cells at 60 nM incubated for 48 hrs by annexin V-FITC and PI staining based flow cytometry analysis (reference value: 2.17%); assay type: functional
[9] = Toxicity in BALB/c mouse assessed as effect on lung at 5 to 15 mg/kg, iv measured after 2 weeks by H and E staining based analysis; assay type: organism-based; conditions: in vivo, 336 h, dose 5-15 mg/kg
MCF7 [10] = experiment: Inhibition of cell migration in human MCF7 cells at 20 to 40 nM incubated for 24 hrs by wound healing assay; assay type: functional, cell-based; conditions: dose 20-40 nM
MCF7 [11] = experiment: Induction of apoptosis in human MCF7 cells incubated for 48 hrs by annexin V-FITC and PI staining based flow cytometry analysis; assay type: functional, cell-based; conditions: dose 20-60 nM
MCF7 [12] = experiment: Induction of apoptosis in human MCF7 cells assessed as late apoptotic cells at 60 nM incubated for 48 hrs by annexin V-FITC and PI staining based flow cytometry analysis (reference value: 2.22%); assay type: functional
[13] = Toxicity in BALB/c mouse assessed as effect on kidney at 5 to 15 mg/kg, iv measured after 2 weeks by H and E staining based analysis; assay type: organism-based; conditions: in vivo, 336 h, dose 5-15 mg/kg
4T1 [14] = experiment: Antitumor activity against mouse 4T1 cells xenografted in BALB/c mouse model assessed as tumor growth inhibition rate at 15 mg/kg, iv measured every two days for 2 weeks relative to control; assay type: functional; conditions: 4T1, 336 h, read-out: TGI
[15] = Toxicity in BALB/c mouse assessed as effect on body weight loss at 5 to 15 mg/kg, iv measured after 2 weeks; assay type: organism-based; conditions: in vivo, 336 h, dose 5-15 mg/kg
A549 = experiment: Antiproliferative activity against human A549 cells measured after 72 hrs by MTT assay; assay type: functional, cell-based; conditions: A549, 72 h
MCF7 [16] = experiment: Induction of apoptosis in human MCF7 cells assessed as viable cells at 60 nM incubated for 48 hrs by annexin V-FITC and PI staining based flow cytometry analysis (reference value: 92.4%); assay type: functional; conditions: read-out: Activity
MCF7 [17] = experiment: Induction of cell cycle arrest in human MCF7 cells assessed as accumulation of cells at G2/M phase at 20 nM incubated for 24 hrs by PI staining based flow cytometry analysis (reference value: 14.36%); assay type: functional
MCF7 [18] = experiment: Inhibition of colony formation in human MCF7 cells at 60 nM measured after 24 hrs by crystal violet staining based analysis relative to control; assay type: functional
MCF7 [19] = experiment: Induction of cell cycle arrest in human MCF7 cells assessed as accumulation of cells at S phase at 40 nM incubated for 24 hrs by PI staining based flow cytometry analysis (reference value: 14.58%); assay type: functional
4T1 [20] = experiment: Antitumor activity against mouse 4T1 cells xenografted in BALB/c mouse model assessed as tumor growth inhibition rate at 5 mg/kg, iv measured every two days for 2 weeks relative to control; assay type: functional; conditions: 4T1, 336 h, read-out: TGI
[21] = Toxicity in BALB/c mouse assessed as drug tolerance at 5 to 15 mg/kg, iv measured after 2 weeks; assay type: organism-based; conditions: in vivo, 336 h, dose 5-15 mg/kg
[22] = Toxicity in BALB/c mouse assessed as effect on liver at 5 to 15 mg/kg, iv measured after 2 weeks by H and E staining based analysis; assay type: organism-based; conditions: in vivo, 336 h, dose 5-15 mg/kg
MCF7 [23] = experiment: Inhibition of colony formation in human MCF7 cells measured after 24 hrs by crystal violet staining based analysis; assay type: functional, cell-based; conditions: dose 20-40 nM
SGC-7901 = experiment: Antiproliferative activity against human SGC-7901 cells measured after 72 hrs by MTT assay; assay type: functional, cell-based; conditions: SGC-7901, 72 h
MCF7 [24] = experiment: Induction of cell cycle arrest in human MCF7 cells assessed as accumulation of cells at G0/G1 phase at 20 nM incubated for 24 hrs by PI staining based flow cytometry analysis (reference value: 69.67%); assay type: functional
[25] = Toxicity in BALB/c mouse assessed as effect on heart at 5 to 15 mg/kg, iv measured after 2 weeks by H and E staining based analysis; assay type: organism-based; conditions: in vivo, 336 h, dose 5-15 mg/kg
MCF7 [26] = experiment: Induction of cell cycle arrest in human MCF7 cells assessed as accumulation of cells at S phase at 20 nM incubated for 24 hrs by PI staining based flow cytometry analysis (reference value: 14.58%); assay type: functional
MCF7 [27] = experiment: Induction of cell cycle arrest in human MCF7 cells assessed as accumulation of cells at G0/G1 phase at 40 nM incubated for 24 hrs by PI staining based flow cytometry analysis (reference value: 69.67%); assay type: functional
4T1 [28] = experiment: Antiproliferative activity against mouse 4T1 cells measured after 72 hrs by MTT assay; assay type: functional, cell-based; conditions: 4T1, 72 h
MCF7 [29] = experiment: Induction of apoptosis in human MCF7 cells assessed as viable cells at 40 nM incubated for 48 hrs by annexin V-FITC and PI staining based flow cytometry analysis (reference value: 92.4%); assay type: functional; conditions: read-out: Activity
[30] = Toxicity in BALB/c mouse assessed as effect on spleen at 5 to 15 mg/kg, iv measured after 2 weeks by H and E staining based analysis; assay type: organism-based; conditions: in vivo, 336 h, dose 5-15 mg/kg
MCF7 [31] = experiment: Antiproliferative activity against human MCF7 cells measured after 72 hrs by MTT assay; assay type: functional, cell-based; conditions: MCF7, 72 h
MCF7 [32] = experiment: Induction of apoptosis in human MCF7 cells assessed as late apoptotic cells at 40 nM incubated for 48 hrs by annexin V-FITC and PI staining based flow cytometry analysis (reference value: 2.22%); assay type: functional
MCF7 [33] = experiment: Induction of cell cycle arrest in human MCF7 cells incubated for 24 hrs by PI staining based flow cytometry analysis; assay type: functional; conditions: dose 20-60 nM
MCF7 [34] = experiment: Induction of cell cycle arrest in human MCF7 cells assessed as accumulation of cells at G2/M phase at 40 nM incubated for 24 hrs by PI staining based flow cytometry analysis (reference value: 14.36%); assay type: functional
Tubulin (Homo sapiens) [35] = target: T1, Tubulin (Homo sapiens); experiment: Inhibition of tubulin polymerization (unknown origin) measured every 60 secs for 90 mins by microplate reader based analysis; assay type: protein-complex assay; conditions: dose 1-8 µM
MCF7 [36] = experiment: Induction of apoptosis in human MCF7 cells assessed as late apoptotic cells at 20 nM incubated for 48 hrs by annexin V-FITC and PI staining based flow cytometry analysis (reference value: 2.22%); assay type: functional
MCF7 [37] = experiment: Induction of apoptosis in human MCF7 cells assessed as early apoptotic cells at 40 nM incubated for 48 hrs by annexin V-FITC and PI staining based flow cytometry analysis (reference value: 2.17%); assay type: functional
MCF7 [38] = experiment: Induction of apoptosis in human MCF7 cells assessed as necrotic cells at 40 nM incubated for 48 hrs by annexin V-FITC and PI staining based flow cytometry analysis (reference value: 2.25%); assay type: functional
MCF7 [39] = experiment: Induction of cell cycle arrest in human MCF7 cells assessed as accumulation of cells at G0/G1 phase at 60 nM incubated for 24 hrs by PI staining based flow cytometry analysis (reference value: 69.67%); assay type: functional

COc1ccc(-c2ccc3nnn(-c4cc(OC)c(OC)c(OC)c4)c3c2)cc1O
Activity (MCF7 [1]): 2.05% | Activity (MCF7 [2]): 2.8% | Activity (MCF7 [3]): 50.23% | viability at 0.02 µM (MCF7 [4]): 83.6% | Activity (MCF7 [5]): 5.47% | Activity (MCF7 [6]): 21.52% | Activity (Tubulin (Homo sapiens) [7]): Active | Activity (MCF7 [8]): 26.4% | Activity [9]: Non-Toxic | inhibition (MCF7 [10]): Active | Activity (MCF7 [11]): Dose-Dependent Effect | Activity (MCF7 [12]): 10.6% | Activity [13]: Non-Toxic | inhibition in vivo at 15 mg/kg (4T1 [14]): 68.5% | Activity [15]: Non-Toxic | pIC50 (A549): 7.35 | viability at 0.06 µM (MCF7 [16]): 60.9% | Activity (MCF7 [17]): 14.84% | inhibition at 0.06 µM (MCF7 [18]): 100% | Activity (MCF7 [19]): 34.21% | inhibition in vivo at 5 mg/kg (4T1 [20]): 49.5% | Activity [21]: Non-Toxic | Activity [22]: Non-Toxic | inhibition (MCF7 [23]): Dose-Dependent Effect | pIC50 (SGC-7901): 7.85 | Activity (MCF7 [24]): 60.54% | Activity [25]: Non-Toxic | Activity (MCF7 [26]): 22.71% | Activity (MCF7 [27]): 38.73% | pIC50 (4T1 [28]): 7.49 | viability at 0.04 µM (MCF7 [29]): 62.9% | Activity [30]: Non-Toxic | pIC50 (MCF7 [31]): 7.70 | Activity (MCF7 [32]): 10.1% | Activity (MCF7 [33]): Dose-Dependent Effect | Activity (MCF7 [34]): 26.14% | inhibition (Tubulin (Homo sapiens) [35]): Dose-Dependent Effect | Activity (MCF7 [36]): 8.16% | Activity (MCF7 [37]): 24.9% | Activity (MCF7 [38]): 2.07% | Activity (MCF7 [39]): 27.42%
